Among the data in PubChem BioAssay (NCI) are GI50 and TGI values, retold here.

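A five-concentration, 48-hour dose response in 96-well plates underlies each endpoint, interpolated linearly between surrounding concentrations. GI50 marks 50% less growth. At the TGI there is no net growth.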

Common to all, as to assay: NCI tumour cell line growth inhibition, 48 h
Assay [1] concerns T-47D breast.
For assay [2], the system named is PC-3 prostate.
The test system of assay [3] is OVCAR-8 ovarian.
In assay [4] the test system is UO-31 renal.
Assay [5] concerns HS 578T breast.
Assay [6] concerns SW-620 colon.
Assay [7] deals with HT29 colon.
In assay [8] the test system is IGROV1 ovarian.
Assay [9] concerns HCT-116 colon.
Assay [10] concerns HCT-15 colon.

In the case of `CCC(O)c1ccc(Br)cc1NC(=O)c1cccc(Cl)c1` (stereo not given), the GI50 in assay [1] was 12.7 µM; in assay [2], 12.5 µM; in [3], 23.7 µM; in assay [4], 10.8 µM; in [5], 24.6 µM; in assay [6] it was 26.6 µM. Besides, the GI50 in [7] is 17.9 µM; in assay [8] it was 17.2 µM; in [9] it was 14.2 µM; in assay [10] it was 23.1 µM. Further, the TGI in assay [1] was 84.8 µM; in assay [2], 53.4 µM; in [3] it was 77.9 µM; in assay [4] it was above 100 µM; in assay [5], above 100 µM; in assay [6] it was 99.6 µM. Also, the TGI in [7] was 37.2 µM; in assay [8] it was 92.6 µM; in assay [9] it was 46.6 µM; in assay [10], above 100 µM.

As for `CCOC(=O)C(Cc1c[nH]c2c(N(CCO)CCO)cccc12)(NC(C)=O)C(=O)OCC`, the GI50 in assay [1] was 396 µM; in assay [2], 409 µM; in assay [3] it was above 1000 µM; in assay [4], above 1000 µM; in [5] it was 302 µM; in assay [6] it was 431 µM. Also, the GI50 is 140 µM in [7], 643 µM in assay [8], 412 µM in assay [9] and 182 µM in assay [10]. In addition, the TGI in [1], in [2], in assay [3], in assay [4], in assay [5] and in [6] was above 1000 µM each time. In addition, the TGI in [7] is 417 µM; in assay [8], above 1000 µM; in assay [9] it was above 1000 µM; in assay [10] it was above 1000 µM.

As for `CCNc1cc(-c2cccc(OC(F)(F)F)c2)nc2ccc(N3CCCC3)cc12`, the GI50 in [1] is 2.11 µM; in assay [2], 1.48 µM; in assay [3], 2.51 µM; in assay [4], 1.36 µM; in [5], 1.72 µM; in assay [6] it was 1.6 µM. For the same compound, the GI50 in assay [7] was 2.18 µM; in [8] it was 1.78 µM; in assay [9], 1.52 µM; in [10] it was 1.71 µM. The TGI in assay [1] worked out at 7.06 µM; in [2], 4.31 µM; in [3], 8.24 µM; in assay [4] it was 2.71 µM; in assay [5], 3.96 µM; in assay [6], 3.47 µM. For the same compound, the TGI in assay [7] was found to be 10.3 µM; in [8], 4.79 µM; in [9], 3.43 µM; in assay [10] it was 5.96 µM.

As to `Cn1c(C(=O)c2ccncc2)cc2ccccc21`, the GI50 in assay [1] is 41.6 µM; in assay [2], 80.7 µM; in [3] it was 46 µM; in assay [4] it was 27.4 µM; in assay [5], 65 µM; in assay [6], 52.8 µM. The GI50 in assay [7] was 92.8 µM; in assay [8], above 100 µM; in assay [9], 72 µM; in assay [10], 90.9 µM. In addition, the TGI in assay [1], in assay [2], in assay [3], in assay [4], in assay [5] and in [6] was above 100 µM throughout. Also, the TGI in [7], in [8], in assay [9] and in [10] was above 100 µM throughout.

Regarding `O=C1c2ccccc2-[n+]2ccc3c([nH]c4ccccc43)c21`, the TGI is 3.52 µM in assay [1]; 1.08 µM in assay [2]; above 100 µM in assay [3]; 3.28 µM in assay [4]; above 31.6 µM in [5]; 2.72 µM in [6]. In addition, the TGI was 1.78 µM in [7], 0.671 µM in assay [8], 0.51 µM in assay [9] and above 100 µM in assay [10].

`O=S(=O)(NC1=NCCN1C(=S)SN1CCn2c1nsc2=S)c1cccc2ccccc12`: the GI50 was 20.2 µM in assay [1]; 29.2 µM in assay [2]; 17.5 µM in assay [3]; 26.6 µM in assay [4]; 25.5 µM in assay [5]; 33.2 µM in assay [6]. Moreover, the GI50 is 31.4 µM in assay [7], 10 µM in assay [8], 14.8 µM in [9] and 26.3 µM in [10]. In addition, the TGI in assay [1] was above 100 µM; in assay [2], above 100 µM; in assay [3], 43.8 µM; in assay [4] it was above 100 µM; in assay [5], above 100 µM; in [6] it was above 100 µM. The TGI was above 100 µM in assay [7], 32.6 µM in [8], 37.2 µM in assay [9] and above 100 µM in assay [10].

On to `COc1ccc(/C=C/C(=O)/C=C/c2cc3ccccc3[nH]c2=O)cc1`, for which the GI50 was 3.34 µM in assay [1]; 2.38 µM in [2]; 3.55 µM in assay [3]; 3.48 µM in [4]; 3.14 µM in [5]; 1.89 µM in [6]. Besides, the GI50 was 2.47 µM in assay [7], 2.21 µM in assay [8], 1.55 µM in assay [9] and 2.41 µM in assay [10]. The TGI in [1] stood at 12.4 µM; in [2] it was 7.81 µM; in assay [3] it was 22.4 µM; in assay [4], 17.9 µM; in assay [5], 47 µM; in assay [6], 4.56 µM. In addition, the TGI in assay [7] stood at 5.94 µM; in [8], 5.1 µM; in [9], 3.24 µM; in [10] it was 7.69 µM.

In the case of `C=CCNc1nc2c(s1)C(=O)c1ccccc1C2=O`, the TGI is 68.3 µM in assay [1]; 30.3 µM in [2]; 20.1 µM in [3]; 26.1 µM in assay [4]; above 100 µM in [5]; 32.4 µM in assay [6]. Also, the TGI came to 50.2 µM in [7], 38.3 µM in assay [8], 13.6 µM in assay [9] and 30.7 µM in assay [10].
